The values below come from ChEMBL document CHEMBL3608205, “Eight new cycloartane triterpenoids from Beesia calthifolia with hepatoprotective effects against D-galactosamine induced L02 cell damage” (Bioorg Med Chem Lett, 2015).

As a reminder, the EC50 is the concentration giving half of the maximal effect.

One test deals with L02. The experiment in a line: Hepatoprotective activity in human L02 cells assessed as reduction in D-galactosamine-induced cell damage at 0.1 to 1000 uM pre-incubated at 37 degC for 24 hrs before D-galactosamine challenge for 24 hrs by SRB method. The class given is functional, cell-based. To be noted: Homo sapiens, L02; read-out: EC50.
For `CC(=O)O[C@H]1[C@H](OC(C)=O)[C@@]2(C)[C@@H]3CC[C@H]4C(C)(C)[C@@H](O)CC[C@@]45C[C@@]35C[C@@H](O)[C@]2(C)[C@H]1[C@]1(C)CC[C@H](C(C)(C)O)O1` (mixture of isomers), the EC50 is 10.7 µM.

Consider `CC(C)(O)[C@H]1CC[C@@](C)([C@H]2[C@@H](O)[C@H](O)[C@@]3(C)[C@@H]4CC[C@H]5C(C)(C)[C@@H](O[C@@H]6OC[C@@H](O)[C@H](O)[C@H]6O)CC[C@@]56C[C@@]46C[C@H](O)[C@]23CO)O1` (relative stereo), for which the EC50 was determined as 48.9 µM.

Consider `CC(C)(O)[C@H]1CC[C@@](C)([C@H]2[C@@H](O)[C@H](O)[C@@]3(C)[C@@H]4CC[C@H]5C(C)(C)[C@@H](O[C@@H]6OC[C@@H](O)[C@H](O)[C@H]6O)CC[C@@]56C[C@@]46C[C@@H](O)[C@]23C)O1` (relative stereo), for which the EC50 came to 61.6 µM.

With `CC(C)(O)[C@H]1CC[C@@](C)([C@H]2[C@@H](O)[C@H](O)[C@@]3(C)[C@@H]4CC[C@H]5C(C)(C)[C@@H](O[C@@H]6OC[C@@H](O)[C@H](O)[C@H]6O)CC[C@@]56C[C@@]46C[C@H](O)[C@]23C)O1`, the EC50 stood at 70.8 µM.

As for `CC(C)(O)[C@H]1CC[C@@](C)([C@H]2C(=O)[C@H](O)[C@@]3(C)[C@@H]4CC[C@H]5C(C)(C)[C@@H](O[C@@H]6OC[C@@H](O)[C@H](O)[C@H]6O)CC[C@@]56C[C@@]46C[C@H](O)[C@]23C)O1` (relative stereo), the EC50 stood at 78.6 µM.

Still in this test, the particulars now being: l02.
In the case of `CC(C)(O)[C@H]1CC[C@@](C)([C@H]2C(=O)[C@H](O)[C@@]3(C)[C@@H]4CC[C@H]5C(C)(C)[C@@H](O)CC[C@@]56C[C@@]46C[C@H](O)[C@]23C)O1` (relative stereo), the EC50 entry was “Not Active”.

Consider `CC(=O)O[C@H]1[C@H](O)[C@H]([C@]2(C)CC[C@H](C(C)(C)O)O2)[C@@]2(C)CC[C@@]34C[C@@]35CC[C@H](O[C@@H]3OC[C@@H](O)[C@H](O)[C@H]3O)C(C)(C)[C@@H]5CC[C@H]4[C@]12C`, for which the EC50 result is recorded as “Not Active”.

`CC(=O)OC[C@]12CC[C@@]34C[C@@]35CC[C@H](O[C@@H]3OC[C@@H](O)[C@H](O)[C@H]3O)C(C)(C)[C@@H]5CC[C@H]4[C@]1(C)[C@@H](O)[C@H](OC(C)=O)[C@@H]2[C@]1(C)CC[C@H](C(C)(C)O)O1`: the EC50 result is listed as “Not Active”.
